As a reminder, the half-life is the time needed for the level to fall by half in the phase considered.

Data on 8 molecules can be found in patent US20070259094A1, “N-acetylglucosamine as a food and beverage additive” (priority 2002, published 2007).

In data set [1] the test system is IL-1β-induced NO production in normal human articular chondrocytes. The note with it: cited from earlier work; for effect on IL-1β-induced NO production: normal human articular chondrocytes; for Inhibitory Activity on IL-1β induced NO Production: table of various sugars.
Data set [2] relates to COX-2. Conditions: cited from earlier work; for inhibiting the production of COX-2: human chondrocytes stimulated with IL-1.
Data set [3] concerns Inducible NO Synthetase. Conditions: cited from earlier work; for inhibiting the production of nitric oxide synthetase: human chondrocytes stimulated with IL-1.
In data set [4] the test system is IL-6. Conditions: cited from earlier work; for inhibiting the production of IL-6: human chondrocytes stimulated with IL-1.
Data set [5] deals with severe treatment-resistant inflammatory bowel disease. The note with it: cited from earlier work.
Data set [6] can be described thus: pH of aqueous solution. It counts as physicochemical. Conditions: for pH of solution: 2 grams in 180 mL of water. As for the experimental part: Two grams of glucosamine sulphate in 180 mL of water gives a solution with a pH of 6.06 and glucosamine hydrochloride gives a solution with a pH of 6.07.
A solution of 2 grams of N-acetylglucosamine in 180 mL of water has a pH of 7.40.

Data set [7] concerns COX-1. The note with it: constitutively expressed, human chondrocytes; cited from earlier work.
Data set [8] relates to intestinal mucosa. Put plainly: Incorporation of glucosamine and N-acetylglucosamine into glycoproteins of intestinal mucosa in vitro. It counts as cell-based, human. Conditions: normal subjects, on average. An excerpt:
Inflammatory conditions can also interfere with the incorporation of glucosamine into glycosaminoglycans. Intestinal mucosal from patients with ulcerative colitis and Crohn's disease and from patients without inflammatory disease were studied in vitro. N-acetylglucosamine is preferentially incorporated into glycoproteins over glucosamine. In normal subjects—ratio ranges were from 0.04 to 0.26 with a mean 0.097. Thus on average 10 times more N-acetylglucosamine is incorporated into macromolecules than glucosamine. In IBD the mean ratio of incorporation of glucosamine to N-acetylglucosamine is 0.039 for Crohn's and 0.031 for ulcerative colitis. In other words, 25 to 32 times more N-acetylglucosamine was incorporated into macromolecules compared to glucosamine (2).

For data set [9] the following is noted: cited from earlier work; for half-life: doses as high as 20 grams per human subject; for adverse events: five subjects.
Data set [10] can be described thus: Bran muffin baking behaviour at 400° F. (204° C.). Type of data set: physicochemical. Conditions: bran muffins baked at 204° C. As for the experimental part:
Measure out 4 times 415 mL dry muffin mix (sufficient to make 6 muffins each) to make up the following formulae
Add to each dry mix 160 mL of water and ¼ of egg mixture and mix thoroughly.
Pour equal amounts into 6 muffin cups for each of the formulae.
Preheat oven to 400° F. or 204° C., bake each formula separately and observing cooking behaviour.

Data set [11] relates to osteoarthritis of the temporomandibular joint. Conditions: cited from earlier work; for patients improved (positive clinical response = 20% decrease TMJ pain with function): GS 500 mg tid, ibuprofen 400 mg tid, p=0.73 between groups; for number of patients improved (positive clinical response): of 21 GS and 18 ibuprofen completers.
In data set [12] the test system is osteoarthritis (knee). Conditions: 4-week course, cited from earlier work; for symptoms of osteoarthritis: glucosamine sulphate 1,500 mg, ibuprofen 1,200 mg.
Data set [13] relates to primary knee osteoarthritis. The note with it: cited from earlier work.
The conditions of data set [14]: cited from earlier work; for absolute bioavailability: compared with IV at 100%.
For data set [15] the following is noted: cited from earlier work.
The test system of data set [16] is intestinal mucosa. Conditions: cited from earlier work.
Setting [17] is: IL-1β-stimulated human chondrocytes.
Setting [18] is: rectal administration as sole therapy.
[19] abbreviates: number of patients of 106, three years.

Each structure is given as a SMILES string. Read-outs that look alike come from different tables or passages of the source.

In the case of `O=C[C@H](O)[C@@H](O)[C@H](O)[C@H](O)C(=O)O` [Glucuronic Acid], in data set [1], the “effect on IL-1β-induced NO production” value is reported as “do not express this activity” and the “Inhibitory Activity on IL-1β induced NO Production” value was “Nil”.
On to `CC(=O)N[C@H]1C(O)O[C@H](CO)[C@@H](O)[C@@H]1O` (stereo partly drawn) [N-Acetylglucosamine, N-acetylglucosamine], for which, in data set [2] (setting [17]), the “COX-2 Expression, Protein” value is “inhibits” and the “COX-2 Expression, mRNA” value was “inhibits”. Moreover, the “inhibiting the production of COX-2” value in data set [2] was “inhibiting”. Further, in [3] (setting [17]), the “Inducible NO Synthetase Expression, Protein” value was “inhibits” and the “Inducible NO Synthetase Expression, mRNA” value is listed as “inhibits”. Also, the “inhibiting the production of nitric oxide synthetase” value in data set [3] is reported as “inhibiting”. Also, the “ability to inhibit IL-1β-induced NO production relative to glucosamine” value in data set [1] (10 mM concentration) is listed as 5 times. In addition, in [1], the “effect on IL-1β-induced NO production” value is given as “inhibit” and the “Inhibitory Activity on IL-1β induced NO Production” value is on record as “Strong”. Further, the “IL-6 Production” value in data set [4] (setting [17]) is listed as “inhibits”. The “inhibiting the production of IL-6” value in data set [4] was “inhibiting”. For the same molecule, the “adverse side-effects of treatment” value in data set [5] (3 to 6 grams daily in three divided doses) is recorded as “no adverse side-effects of treatment were noted in any patient”. In data set [5] (in vivo), the “histology in all cases biopsied” value is given as “evidence of histological improvement”. Besides, in [5] (of 7, mean follow-up >2.5 years), the “children with symptomatic Crohn's stricture requiring surgery” value is on record as 3. The “children showing clear improvement” value in [5] (oral adjunct therapy, 3-6 g daily, 12 children) is “Eight”. In addition, the children requiring resection result in data set [5] (oral adjunct therapy, 12 children) is recorded as “four”. In addition, the cases of remission result in data set [5] (rectal administration as sole therapy, nine children) was “two”. For the same molecule, in data set [5] (setting [18]), the “cases of clear improvement” value is recorded as “three” and the “cases of no effect” value is on record as “two”. Also, in data set [6], the “pH (1% in water)” value is listed as 7.4 and the pH of solution came to 7.40. In [7], the “COX-1 Expression, Protein” value is “No Inhibition”. Moreover, in data set [8], the “times more N-acetylglucosamine incorporated into macromolecules than glucosamine” value worked out at 10 times. In data set [9] (IV), the half-life was 3.67 h. In data set [9] (IV, human), the “blood sugar when administered without insulin” value is listed as “Neither agent showed a rise in blood sugar”. For the same molecule, the “administered dose excreted in the urine” value in data set [9] (IV, in 24 hours) is on record as 54%. Besides, the adverse events result in data set [9] is “no adverse events reported”. Moreover, the “stability in the baking process” value in [10] is “stable during the baking process”.
Regarding `CC(=O)N[C@@H]1[C@@H](O)[C@@H](O)[C@@H](CO)O[C@@H]1O` [N-Acetylgalactosmine], in [1], the “Inhibitory Activity on IL-1β induced NO Production” value is “Strong”.
For the molecule `Cl.N[C@H]1C(O)O[C@H](CO)[C@@H](O)[C@@H]1O` (stereo partly drawn) [Glucosamine hydrochloride], in data set [6], the “pH (1% in water)” value turned out to be 6.07 and the pH of solution stood at 6.07. Moreover, the half-life in [9] (IV) was 2.5 h. In data set [9], the adverse events entry is on record as “no adverse events reported”. In data set [9] (human, in vivo, iv), the “blood sugar when administered with 7 units of insulin” value is given as “showed a rise in blood sugar” and the “blood sugar when administered without insulin” value is on record as “Neither agent showed a rise in blood sugar”. Also, the “stability in the baking process” value in [10] is listed as “break down in the baking process”.
Take `CC(C)Cc1ccc(C(C)C(=O)O)cc1` (stereo not drawn) [ibuprofen]: in [11] (90 days), the “patients improved (positive clinical response = 20% decrease TMJ pain with function)” value is 61%, the “patients discontinued due to inadequate pain control” value is “one” and the “patients discontinued due to stomach upset” value is listed as 3. Besides, in data set [11], the “number of patients improved (positive clinical response)” value was 11. For the same molecule, in data set [12], the “patients dropped out because of adverse events / side effects” value was 10% and the symptoms of osteoarthritis entry is “reduced symptoms”.
In the case of `N[C@H]1C(O)O[C@H](CO)[C@@H](O)[C@@H]1O.O=S(=O)(O)O` (stereo partly drawn) [Glucosamine Sulphate], in data set [11] (90 days), the “patients improved (positive clinical response = 20% decrease TMJ pain with function)” value is 71%, the “patients discontinued due to dizziness” value is reported as “one” and the “patients discontinued due to stomach upset” value was “one”. Moreover, the “decrease in TMJ pain with function and acetaminophen use, between-group comparison” value in data set [11] (between Day 90 and 120, compared with ibuprofen) is reported as “significantly greater decrease”. In addition, the “number of patients improved (positive clinical response)” value in data set [11] is listed as “Fifteen”. In data set [13] (1.5 grams per day, three years, versus placebo, p<0.05), the “significant joint space narrowing” value was “did not”. In [13] (during the study), the “fasting plasma glucose concentrations” value was “decreasing slightly”. Also, in data set [13] (setting [19]), the “Withdrawal from Study Due to Adverse Events” value is recorded as 21 and the “Withdrawal from Study, Lack of Efficacy” value was 3. Also, in [13] (three-year period), the “incidence and type of adverse events versus placebo” value is listed as “not different between the two groups”; the “routine laboratory tests (system organs, metabolic functions)” value is reported as “did not show any abnormalities”. Further, in data set [6], the “pH (1% in water)” value came to 6.06 and the pH of solution was determined as 6.06. Besides, in [12], the “patients dropped out because of adverse events / side effects” value is “None” and the symptoms of osteoarthritis entry is “reduced symptoms”. In data set [10], the “stability in the baking process” value is reported as “break down in the baking process”.
Regarding `CC(=O)N[C@@H]1C(O)O[C@H](CO)[C@@H](O)[C@@H]1O` (stereo partly drawn) [N-Acetylmannosamine], in [1], the “effect on IL-1β-induced NO production” value is “do not express this activity” and the “Inhibitory Activity on IL-1β induced NO Production” value is given as “Nil”.
With `N[C@H]1C(O)O[C@H](CO)[C@@H](O)[C@@H]1O` (stereo partly drawn) [Glucosamine], the “inhibiting the production of COX-2” value in data set [2] was “not effective”. Besides, in data set [14] (IM administration), the absolute bioavailability is recorded as 93%. Moreover, the absolute bioavailability in [14] (oral administration) is reported as 44%. Moreover, in data set [14] (oral route), the “administered dose excreted by the kidneys” value was “about 10%” and the “administered dose excreted via the feces” value is 11%. The “inhibiting the production of nitric oxide synthetase” value in [3] is “not effective”. Further, in [1], the “effect on IL-1β-induced NO production” value is recorded as “inhibit” and the “Inhibitory Activity on IL-1β induced NO Production” value was “Weak”. For the same molecule, the “inhibiting the production of IL-6” value in [4] is given as “not effective”. Moreover, in data set [15] (forearm glucosamine infusion, twenty human volunteers), the “total body insulin sensitivity” value is “did not affect”. Further, in data set [15] (glucosamine infusion), the “baseline arteriovenous glucose differences” value is “not affected”, the forearm blood flow result is “did not alter” and the “forearm skeletal muscle glucose uptake” value was “did not affect”. Moreover, the “mean ratio of incorporation of glucosamine to N-acetylglucosamine” value in [16] (Crohn's) is on record as 0.039. Further, in [16] (normal subjects), the “ratio of incorporation of glucosamine to N-acetylglucosamine, mean” value was 0.097. Also, the “mean ratio of incorporation of glucosamine to N-acetylglucosamine” value in data set [16] (ulcerative colitis) is on record as 0.031.
